From patent US9115122B2, “Non-ATP dependent inhibitors of extracellular signal-regulated kinase (ERK)” (UNIVERSITY OF MARYLAND, BALTIMORE, priority 2012, dated 2015)
Read-outs that look alike come from different tables or passages of the source.

Assays:
HeLa cells = assay: Dose-response growth inhibition (GI50) of select compounds; format: cell-based
Jurkat cells = assay: as above; format: cell-based
RPMI7951 melanoma cells [1] = assay: as above; format: cell-based; settings: two days
Experimental: (§1) An example of the dose response curve for compound 30h and the BRaf inhibitor PLX4032 for inhibiting the growth of melanoma cell lines is shown in FIG. 14. […] A summary of GI50 values for select compounds along with comparisons to know ERK pathway inhibitors in various cell lines is shown in Table 13. […] First, thiazolidinedione compounds have been identified to be selective inhibitors of cancer cell lines containing activated ERK signaling. Second, changes in the 4-ethoxyphenyl component of the parent compound 76 improve selectivity and potency for inhibiting melanoma cell growth. Third, compound 30h is a potent inhibitor of melanoma cell lines that have become resistant to the clinically relevant BRaf and MEK inhibitors. […] Lastly, 30h is as potent as the ATP-competitive pyrazolopyridazinamine ERK inhibitor (FR180204) in preventing melanoma cell proliferation and provides an alternative non-ATP-dependent approach to target cancer cells that are dependent on active ERK signaling.
(§2) Melanoma cells (A375, SK-MEL-28, and RPMI7951) were seeded at a density of 5,000 per well in 96-well plate. After overnight incubation, cells were treated with varying doses of PLX4032 (A) or 31h (B) for two days. Cell viability was determined by the addition of Cell Titer-Blue Reagent (20 μL/well) followed by 2 hours of incubation at 37° C. after which fluorescence was recorded (555/585 nm). Cell viability was expressed as percentage of vehicle control and data represent the average of three individual experiments.

SK-MEL-28 melanoma cells [2] = assay: as above; format: cell-based; settings: two days
Experimental: as §1, §2

A375 melanoma cells [3] = assay: as above; format: cell-based; settings: two days
Experimental: as §1, §2

[4] = system: HeLa cervical carcinoma cells; assay: Cell proliferation WST-1 assay, single dose (Example 4); format: cell-based; settings: 100 μM, 48 hours
Method in brief: (§3)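 Tetrazolium (WST-1) read-out of proliferation, values relative to DMSO-only wells; cells treated for 48 h after 16-20 h recovery.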

SK-MEL-28 melanoma cells [5] = assay: as above; format: cell-based; settings: 100 μM, 48 hours
Method in brief: as §3

RPMI-7951 melanoma cells = assay: as above; format: cell-based; settings: 100 μM, 48 hours
Method in brief: as §3

[6] = system: Jurkat T-cell leukemia cells; assay: as above; format: cell-based; settings: 100 μM, 48 hours
Method in brief: as §3

HL-60 leukemic cells = assay: as above; format: cell-based; settings: 100 μM, 48 hours
Method in brief: as §3

A375 melanoma cells [7] = assay: as above; format: cell-based; settings: 100 μM, 48 hours
Method in brief: as §3

[8] = system: serum response element (SRE); assay: SRE promoter luciferase assay, HeLa cells (Example 4); format: cell-based; settings: EGF
Experimental: (§4) HeLa cells were seeded in 24-well plates (4×10^4 cells/well) and incubated 18 hours prior to achieve ˜60-70% confluent. Cells were transfected with activator protein-1 (pAP1(PMA)-TA-Luc; Clontech) or the serum response element (pGL4.33-SRE; Promega) luciferase reporter plasmids (250 ng/well) using Lipofectamine™ (Invitrogen). After 16 hours, cells were treated with increasing amount of compounds as indicated for 20 minutes, followed by stimulation with EGF (25 ng/mL) for 4.5 hr. The luciferase activity in the cell extracts was determined with a Dual Luciferase Assay System (Promega) according to the manufacturer's instructions. Luciferase activities were monitored with a Lumat LB 9507 luminometer (Berthold Technology) and data were normalized to the amount of protein in each sample.

[9] = basic group replacing the ethylamine group; cited from earlier work
[10] = system: MEK1-induced AP-1 promoter activity; assay: AP-1 promoter luciferase assay, HeLa cells expressing active MEK1 mutant; format: cell-based; settings: Homo sapiens, 4 hours, read-out: IC50 inhibition of MEK1-induced AP-1 promoter activity
Experimental: FIG. 4. Compound SF-3-026 and analogs inhibit SRE and AP-1 transcription factor function. (a) HeLa cells were transfected with constructs containing SRE or AP-1 promoters driving luciferase expression and then stimulated with EGF in the presence or absence of SF-3-026 for 4 hours followed by measurements of luciferase activity. Cells treated with U0126 were used as a positive inhibitor control. (b and c) HeLa cells were prepared and treated as in (a) with the indicated concentrations of SF-3-026 or analogs for 4 hours followed by the measurement of luciferase activity regulated by the SRE (b) or AP-1 (c) promoters. Data in (b and c) were normalized to EGF-only treatment and represent the mean and standard deviation from three independent experiments. (d) Compound SF-3-026 and analogs inhibit MEK1-induced AP-1 transcription factor function. HeLa cells were transfected with the AP-1 promoter construct and a constitutively active MEK1 mutant in the presence (10 μM) or absence of the MEK1/2 inhibitor (U0126) or an ATP-competitive ERK inhibitor (ERKi) for 4 hours followed by measurements of luciferase activity. (e) Cells expressing the AP-1 promoter and an active MEK-1 construct were treated with the indicated concentrations of SF-3-026 or analogs for 4 hours followed by the measurement of luciferase activity. Data in (e) were normalized to active MEK1-only treatment and represent the mean and standard deviation from three independent experiments.
as §4, with “(40,000” for “(4×10^4”, “hours” for “hours prior”, “pre-treated” for “treated”, “varying amounts” for “increasing amount”, “hr. In some experiments, cells transfected with the pAP1(PMA)-TA-Luc promoter and a constitutively active MEK1 mutant cDNA were treated with varying amounts of compounds during the last 4 hours of incubation.” for “hr.”, “sample. […]” for “sample.”

RPMI7951 melanoma cells [11] = assay: Cell proliferation, fluorescent Cell Titer Blue Assay (Example 1); format: cell-based; settings: Homo sapiens, RPMI-7951; 48 hours
Experimental: (§5) FIG. 5. Dose dependent inhibition of cancer cell proliferation in vitro by SF-3-026 and analogs. A375 (closes circles), RPM17951 (closed squares), HeLa (open circles), or Jurkat (open squares) cells were treated for 48 hours with indicated concentration of (a) SF-3-026, (b) SF-2-027, (c) SF-2-029, or (d) SF-2-030 and cell proliferation was assessed by the fluorescent Cell Titer Blue Assay. The data were reproduced in 3 separate experiments.
(§6) Cells were seeded at 25,000 cells/well in 96-well plate and cultured overnight. Cells were treated for 24 hours with various concentrations of compounds and cell viability or caspase 3/7 activity were measured according to manufacturer's instructions using the fluorescent Cell Titer Blue Assay (Promega) or luminescent Caspase 3/7 Glo Assay (Promega).
(§7) It was next determined whether inhibition of AP-1 proteins by SF-3-026 and analogs affected the proliferation of cancer cells driven by mutations that constitutively activate the ERK1/2 pathway. For these experiments, A375 and RPMI7951 melanoma cells, which have a valine to glutamate mutation on residue 600 in BRaf that causes constitutive ERK1/2 activation, were chosen. Moreover, RPMI7951 cells are resistant to clinically used BRaf inhibitors due to overexpression of MAP3K8 (the gene encoding COT/Tp12) that re-activates ERK1/2 signaling. Both melanoma cells lines were treated with varying doses of SF-3-026 or analogs and cell viability was compared to HeLa cervical carcinoma and Jurkat T-cell leukemia cells, which are p53 defective but contain no known activating mutations in the ERK1/2 pathway.

[12] = system: HeLa cervical carcinoma cells; assay: as above; format: cell-based; settings: Homo sapiens, 48 hours
Experimental: as §5, §6, §7

[13] = system: Jurkat T-cell leukemia cells; assay: as above; format: cell-based; settings: Homo sapiens, 48 hours
Experimental: as §5, §6, §7

A375 melanoma cells [14] = assay: as above; format: cell-based; settings: Homo sapiens, A-375; 48 hours
Experimental: as §5, §6, §7

Row | Structure (SMILES) | GI50 (RPMI7951 melanoma cells [1]; Homo sapiens, RPMI-7951, 48 h) | GI50 (SK-MEL-28 melanoma cells [2]; Homo sapiens, SK-MEL-28, 48 h) | GI50 (A375 melanoma cells [3]; Homo sapiens, A-375, 48 h) | Cell Viability (% of Vehicle) HeLa [4] | Cell Viability (% of Vehicle) SK-MEL-28 (SK-MEL-28 melanoma cells [5]) | Cell Viability (% of Vehicle) RPMI-7951 (RPMI-7951 melanoma cells) | Cell Viability (% of Vehicle) Jurkat [6] | Cell Viability (% of Vehicle) HL-60 (HL-60 leukemic cells) | Cell Viability (% of Vehicle) A375 (A375 melanoma cells [7]) | also measured
1 | Cn1cnc2c(F)c(Nc3ccc(Br)cc3Cl)c(C(=O)NOCCO)cc21 [AZD6244, reference compound] | 20 µM | 0.17 µM | 0.03 µM | – | – | – | – | – | – | GI50 (HeLa cells; Homo sapiens, HeLa): > 10 µM; GI50 (Jurkat cells; Homo sapiens, Jurkat): > 10 µM
2 | CCOc1ccc(/C=C2\SC(=O)N(CCCN)C2=O)cc1 [Compound 22a, (Z)-3-(3-aminopropyl)-5-(4-ethoxybenzylidene)thiazolidine-2,4-dione] | 17 µM | 46 µM | 24 µM | 12 ± 2 % of Vehicle | 0.5 ± 0.01 % of Vehicle | 0.6 ± 0.1 % of Vehicle | 9.0 ± 2 % of Vehicle | 8.0 ± 72 % of Vehicle | 0.7 ± 0.1 % of Vehicle | inhibition of ERK-mediated SRE promoter activity [8]: selective inhibition of the SRE promoter activity
3 | CCOc1ccc(/C=C2\SC(=O)N(Cc3cnc[nH]3)C2=O)cc1 [Compound 28a, (Z)-3((1H-imidazol-5-yl)methyl)-5-(4-ethoxybenzylidene)thiazolidine-2,4-dione] | – | – | – | 80 ± 4 % of Vehicle | 74 ± 6 % of Vehicle | 70 ± 2 % of Vehicle | 106 ± 6 % of Vehicle | 123 ± 20 % of Vehicle | 101 ± 2 % of Vehicle | pKa [9]: ~7
4 | NCCN1C(=O)S/C(=C\c2ccccc2OCc2ccccc2)C1=O [Compound 30k, (Z)-3-(2-aminoethyl)-5-(2-(benzyloxy)benzylidene)thiazolidine-2,4-dione] | – | – | – | 0.6 ± 0.1 % of Vehicle | 0.6 ± 0.04 % of Vehicle | 0.9 ± 0.1 % of Vehicle | 1.5 ± 0.1 % of Vehicle | 8.3 ± 3.4 % of Vehicle | 0.6 ± 0.03 % of Vehicle | –
5 | N#Cc1ccc(COc2ccccc2/C=C2\SC(=O)N(CCN)C2=O)cc1 [Compound 30l, (Z)-4-((2-((3-(2-aminoethyl)-2,4-dioxothiazolidin-5-ylidene)methyl)phenoxy)methyl)benzonitrile] | – | – | – | 8.0 ± 2 % of Vehicle | 0.5 ± 0.01 % of Vehicle | 0.6 ± 0.03 % of Vehicle | 6.7 ± 1 % of Vehicle | 5.7 ± 2 % of Vehicle | 0.5 ± 0.04 % of Vehicle | –
6 | Nc1[nH]nc2nnc(-c3c(-c4ccccc4)nn4ccccc34)cc12 [FR180204, reference compound] | – | – | – | – | – | – | – | – | – | GI50 (HeLa cells): > 10 µM; GI50 (Jurkat cells): > 10 µM; GI50 (RPMI7951 melanoma cells [1]): 11 µM; GI50 (SK-MEL-28 melanoma cells [2]): 4 µM; GI50 (A375 melanoma cells [3]): 5 µM
7 | CCCS(=O)(=O)Nc1ccc(F)c(C(=O)c2c[nH]c3ncc(-c4ccc(Cl)cc4)cc23)c1F [PLX4032, reference compound] | 11 µM | 0.38 µM | 0.07 µM | – | – | – | – | – | – | GI50 (HeLa cells; Homo sapiens, HeLa): > 10 µM; GI50 (Jurkat cells; Homo sapiens, Jurkat): > 10 µM
8 | Cc1ccc(S(=O)(=O)OC2C=CS(=O)(=O)C2)cc1 (stereo not shown) [SF-3-027] | – | – | – | – | – | – | – | – | – | IC50 [10]: ~40 µM; GI50 (RPMI7951 melanoma cells [11]): 3.1 µM; GI50 [12]: 22 µM; GI50 [13]: > 50 µM; GI50 (A375 melanoma cells [14]): 5.5 µM
